Results published in paper PMC9494746 (Biochemistry, 2022).
Where two headings read alike, the source gives them in different places.

How the values were obtained:
[1] = system: C[S+](CC[C@H](N)C(=O)[O-])C[C@H]1O[C@@H](n2cnc3c(N)ncnc32)[C@H](O)[C@@H]1O; assay: Steady-state substrate specificity (peptide and nucleosome substrates), MTase-Glo; assay type: biochemical, human; conditions: other: WRAD2, eq 1, pH 7.5
[2] = target: T1, SET/WRAD2 complex (Homo sapiens, UniProt O14686); assay: Product and dead-end inhibitor studies, MTase-Glo; assay type: biochemical; set-up: key to inhibition pattern: C = competitive; NC = noncompetitive; UC = uncompetitive
T1 construct: expressing amino acids 5308-5537 of the hKMT2D catalytic SET domain; 6xHis + TEV site (N, cleaved yes); made in house; host or cells: KMT2D Win-SET: Sf21 (baculovirus); H3 peptides bought from Chinese Peptide Company
Experimental: (§1) SET domain activity was monitored with a quantitative endpoint assay determining AdoHcy production using MTase-Glo by Promega.[39] Assays were performed as time courses at room temperature with buffer constituents, 50 mM Tris, pH 7.5, 50 mM NaCl, 1 mM DTT, 1% DMSO, and 0.005% w/v Triton X-100 in deionized water. […] Addition of 1 μL of 0.5% v/v TFA was used to stop the methylation reaction at defined time points; 1 μL of 6× concentrated MTase-Glo reagent was added to each well and incubated at room temperature. After 30 min, 6 μL of the prefiltered MTase-Glo detection reagent was added and incubated for a further 30 min at room temperature. Luminescence was measured using an Envision 2101 Multilabel plate reader, and product concentrations were calculated using an AdoHcy standard curve. Steady-state rates were obtained by plotting AdoHcy production over time and normalized to SET domain concentration. Experiments were performed in triplicate and expressed as the mean ± SD. Data were analyzed using nonlinear regression in GraphPad Prism v9.1.
Steady-state rates were measured in substrate-inhibitor matrix experiments. Dead-end inhibitor experiments were performed with the second substrate fixed at KM, while product inhibitor experiments fixed the second substrate at KM or 20× KM. Assays using 20× KM AdoMet used a cofactor adjusted to pH 7.5. […] Steady-state rates were globally fitted to competitive, uncompetitive, and noncompetitive inhibition (eqs 6, 7, and 8, respectively).
Competitive inhibition [drawing 6] 6 Uncompetitive inhibition [drawing 7] 7 Noncompetitive inhibition [drawing 8] 8 Mixed inhibition [drawing 9] 9 where ν is the initial rate, Vmax is the maximum velocity of the uninhibited reaction, [S] is the substrate concentration of the varied substrate, [I] is the inhibitor concentration, KM is the Michaelis–Menten constant, and Ki is the inhibition constant. To resolve any ambiguities in assigning inhibition type, the mixed inhibition model was used (eq 9), to derive the value of α, which is a measure of competitive or uncompetitive nature.

[3] = target: hKMT2D SET domain (Win-SET protein that lost the Win motif by proteolysis) (human) (UniProt O14686)
[4] = target: hKMT2D SET domain (Win-SET protein that lost the Win motif by proteolysis) (human) (UniProt O14686); remark: listed apart in the source
[5] = system: C[S+](CC[C@H](N)C(=O)[O-])C[C@H]1O[C@@H](n2cnc3c(N)ncnc32)[C@H](O)[C@@H]1O; assay: purified protein, by the assay type; assay type: biochemical, human; conditions: pH 7.5
[6] = target: T2, SET/Ash2L/RbBP5 minimal complex (Homo sapiens, UniProt O14686); assay: Substrate matrix experiment with the minimal complex, MTase-Glo; assay type: biochemical; conditions: read-out: Kd^(AdoMet)
T2 construct: 6xHis + TEV site (N); made in house; RbBP5 peptide synthetic, Chinese Peptide Company
Experimental: as §1
The ternary Bi–Bi model [drawing 1] 1 The Ping–Pong model [drawing 2] […]

[7] = target: T3, His-SET (5382–5537) + ASH2L (380-496-ISGRGS-539-598) + RbBP5 peptide (Homo sapiens, UniProt O14686); assay: SPR binding assays (steady-state affinity); conditions: minimal complex; 1:1 interaction model
T3 construct: made in house; RbBP5 peptide synthetic, Chinese Peptide Company
Experimental: Surface plasmon resonance experiments were performed using a T200 instrument (Cytiva) equipped with a research-grade NTA sensor S chip (Cytiva) at 20 °C. For immobilization, the instrument was primed with a buffer composed of 10 mM HEPES, pH 7.5, 150 mM NaCl, 0.5 mM TCEP, and 0.05% Tween 20. The NTA chip was conditioned with three 2 min injections of 50 mM NaOH/1 M NaCl and a 2 min injection of 250 mM EDTA. Protein and reference flow cells were then prepared by a 2 min injection of 1 mM NiCl2 and a 7 min injection of 0.2 M EDC/ 0.05 M NHS. Immediately, the protein (500 nM His-SET (5382–5537) + ASH2L (380-496-ISGRGS-539-598) + RbBP5 peptide in immobilization buffer) was injected over the measurement flow cell to the desired RU level, followed by deactivation with a 7 min injection of 1 M ethanolamine pH 8 of all flow cells. For binding measurements, the system was then primed in a running buffer consisting of 50 mM Tris pH 7.5, 150 mM NaCl, 1 mM TCEP, 1–2% DMSO, and 0.05% Tween 20. […] Data processing included solvent correction and blank subtraction. The steady-state data were analyzed using Biaevaluation/Insight Software 1.1 (GE Healthcare/Cytiva) using an implemented 1:1 interaction model.

[8] = target: T4, hKMT2D SET domain (Homo sapiens, UniProt O14686); assay: WRAD2 titration: MTase-Glo steady-state substrate matrix experiments; assay type: biochemical; conditions: eq 1, read-out: Kd^(AdoMet)
T4 construct: expressing amino acids 5308-5537 of the hKMT2D catalytic SET domain; 6xHis + TEV site (N, cleaved yes); made in house; host or cells: KMT2D Win-SET: Sf21 (baculovirus); H3 peptides bought from Chinese Peptide Company
Experimental: as §1
(§2) Steady-state rates were measured in substrate matrix experiments. Data were globally fitted to ternary Bi–Bi and Ping–Pong models to obtain kcat and KM parameters (eqs 1 and 2).
The ternary Bi–Bi model [drawing 1] 1 The Ping–Pong model [drawing 2] 2 where ν is the initial rate, Vmax is the maximum velocity, [A] is the concentration of the varied substrate, [B] the concentration of the fixed substrate, KM^A and KM^B are the Michaelis constants of the varied and fixed substrates, respectively, and Kd is the dissociation constant of the varied substrate. […]

[9] = target: T1, SET/WRAD2 complex; assay: Steady-state substrate specificity (peptide and nucleosome substrates), MTase-Glo; assay type: biochemical
Experimental: as §1, §2
Target sequence in this assay (Q15291 whole entry, the tested form may be a part): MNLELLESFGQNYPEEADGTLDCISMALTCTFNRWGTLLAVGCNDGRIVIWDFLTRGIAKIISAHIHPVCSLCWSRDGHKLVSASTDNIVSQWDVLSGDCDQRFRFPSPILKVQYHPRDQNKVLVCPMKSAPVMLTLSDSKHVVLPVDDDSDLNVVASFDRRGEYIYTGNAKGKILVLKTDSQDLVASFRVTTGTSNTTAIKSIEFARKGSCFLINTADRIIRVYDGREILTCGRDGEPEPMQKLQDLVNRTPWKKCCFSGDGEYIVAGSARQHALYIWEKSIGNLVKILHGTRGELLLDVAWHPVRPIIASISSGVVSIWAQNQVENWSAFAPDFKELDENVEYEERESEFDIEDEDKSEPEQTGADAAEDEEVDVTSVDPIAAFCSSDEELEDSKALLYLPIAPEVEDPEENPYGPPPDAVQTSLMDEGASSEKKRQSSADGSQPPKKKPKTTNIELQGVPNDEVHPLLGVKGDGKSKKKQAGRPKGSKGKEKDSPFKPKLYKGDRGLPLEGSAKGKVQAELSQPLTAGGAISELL
Target sequence in this assay (Q9UBL3 95-628, further chain): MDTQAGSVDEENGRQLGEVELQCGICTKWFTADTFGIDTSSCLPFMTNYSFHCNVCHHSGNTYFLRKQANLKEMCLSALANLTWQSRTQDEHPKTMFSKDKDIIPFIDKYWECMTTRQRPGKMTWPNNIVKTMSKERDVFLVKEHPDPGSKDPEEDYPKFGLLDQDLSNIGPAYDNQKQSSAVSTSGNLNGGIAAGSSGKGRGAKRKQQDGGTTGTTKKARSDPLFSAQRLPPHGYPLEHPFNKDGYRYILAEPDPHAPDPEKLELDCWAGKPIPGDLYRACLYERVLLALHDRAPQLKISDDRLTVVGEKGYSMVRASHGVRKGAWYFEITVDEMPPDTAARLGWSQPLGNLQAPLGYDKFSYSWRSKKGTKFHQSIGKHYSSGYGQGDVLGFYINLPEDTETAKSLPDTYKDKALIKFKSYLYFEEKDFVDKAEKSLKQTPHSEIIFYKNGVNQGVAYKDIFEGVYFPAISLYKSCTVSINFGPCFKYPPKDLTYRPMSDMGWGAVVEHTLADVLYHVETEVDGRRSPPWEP
Target sequence in this assay (Q9C005 whole entry, further chain, the tested form may be a part): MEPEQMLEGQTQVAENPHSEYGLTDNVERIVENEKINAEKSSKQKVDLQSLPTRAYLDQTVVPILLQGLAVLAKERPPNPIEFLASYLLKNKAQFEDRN
Target sequence in this assay (O14686 5361-5537): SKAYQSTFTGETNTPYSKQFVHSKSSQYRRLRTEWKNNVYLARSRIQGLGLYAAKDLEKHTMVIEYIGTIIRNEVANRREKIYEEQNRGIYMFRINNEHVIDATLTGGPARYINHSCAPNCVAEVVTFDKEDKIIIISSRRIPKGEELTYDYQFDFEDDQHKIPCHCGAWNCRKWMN
The ternary Bi–Bi model [drawing 1] 1 The Ping–Pong model [drawing 2] 2 where ν is the initial rate, Vmax is the maximum velocity, [A] is the concentration of the varied substrate, [B] the concentration of the fixed substrate, KM^A and KM^B are the Michaelis constants of the varied and fixed substrates, respectively, and Kd is the dissociation constant of the varied substrate.

[10] = varied substrate AdoMet, fixed substrate at 20× KM
[11] = varied substrate AdoMet, fixed substrate at KM
[12] = varied substrate H3_1–21, fixed substrate at KM

Chain of hKMT2D SET domain (Win-SET protein that lost the Win motif by proteolysis) (human) (O14686 5362-5537): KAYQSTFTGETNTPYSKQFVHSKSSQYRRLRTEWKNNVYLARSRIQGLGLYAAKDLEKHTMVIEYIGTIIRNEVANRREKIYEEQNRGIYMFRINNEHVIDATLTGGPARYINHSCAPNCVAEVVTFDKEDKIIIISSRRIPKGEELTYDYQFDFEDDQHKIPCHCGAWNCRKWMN
T4 sequence (Q9UBL3 95-628): as the sequence (Q9UBL3 95-628, further chain) above
T4 sequence (Q9C005 whole entry, further chain, the tested form may be a part): as the sequence (Q9C005 whole entry, further chain, the tested form may be a part) above
T4 sequence (O14686 5361-5537): as the sequence (O14686 5361-5537) above
T4 sequence (Q15291 whole entry, further chain, the tested form may be a part): as the sequence (Q15291 whole entry, the tested form may be a part) above
Chain of Ash2L (absent small or homoeotic 2-like), full length (Q9UBL3 whole entry): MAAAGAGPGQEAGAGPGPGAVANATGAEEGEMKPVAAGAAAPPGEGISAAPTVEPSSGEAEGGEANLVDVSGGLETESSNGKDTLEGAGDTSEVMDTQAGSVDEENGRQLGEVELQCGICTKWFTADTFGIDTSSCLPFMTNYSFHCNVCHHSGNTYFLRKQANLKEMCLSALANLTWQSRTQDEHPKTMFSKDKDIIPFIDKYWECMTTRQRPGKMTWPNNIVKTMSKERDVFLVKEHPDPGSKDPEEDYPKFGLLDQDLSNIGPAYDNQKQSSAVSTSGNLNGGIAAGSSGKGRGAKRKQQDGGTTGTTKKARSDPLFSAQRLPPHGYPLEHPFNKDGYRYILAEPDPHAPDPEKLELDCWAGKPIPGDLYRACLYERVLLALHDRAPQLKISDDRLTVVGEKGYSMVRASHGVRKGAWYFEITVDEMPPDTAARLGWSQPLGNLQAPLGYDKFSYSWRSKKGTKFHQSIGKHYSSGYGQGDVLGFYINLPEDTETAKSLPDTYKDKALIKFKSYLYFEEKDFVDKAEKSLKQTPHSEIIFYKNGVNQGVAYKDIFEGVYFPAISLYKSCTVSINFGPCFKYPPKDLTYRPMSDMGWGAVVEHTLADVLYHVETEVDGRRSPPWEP
T2 sequence (O14686 5382-5537, one chain of several): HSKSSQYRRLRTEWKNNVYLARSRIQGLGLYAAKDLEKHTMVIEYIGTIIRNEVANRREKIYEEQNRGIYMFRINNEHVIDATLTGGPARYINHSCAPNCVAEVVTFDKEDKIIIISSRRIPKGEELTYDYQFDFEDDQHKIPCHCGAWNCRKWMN
T3 sequence (O14686 5382-5537): as the sequence (O14686 5382-5537, one chain of several) above
Chain of RbBP5 (retinoblastoma-binding protein), full length (Q15291 whole entry): as the sequence (Q15291 whole entry, the tested form may be a part) above

SET/WRAD2 complex (Homo sapiens) gave a Km ([1]; substrate Me1H3_1–21) of 5.22 ± 0.32 µM and a Km ([1]; substrate Me2H3_1–21) of 3.48 ± 0.36 µM.
With `Nc1ncnc2c1ncn2[C@@H]1O[C@H](CSCC[C@H](N)C(=O)O)[C@@H](O)[C@H]1O` [AdoHcy, S-adenosyl-L-homocysteine] the Ki [2, 10] was 2290 ± 200 nM, the inhibition pattern [2, 10] was “C” and the “α (mixed inhibition model)” value [2, 10] was 6.8. The Ki [2, 11] was 4950 ± 620 nM, the inhibition pattern [2, 11] was “C” and the “α (mixed inhibition model)” value [2, 11] was over 1000. For the same compound, the inhibition pattern ([2]; varied substrate H3_1–21, fixed substrate at 20× KM) was “no inhibition”, the Ki [2, 12] was 5380 ± 410 nM and the inhibition pattern [2, 12] was “NC”. The “α (mixed inhibition model)” value [2, 12] was 0.56.
`Nc1ncnc2c1ncn2[C@@H]1O[C@H](C[C@@H](N)CC[C@H](N)C(=O)O)[C@@H](O)[C@H]1O` [sinefungin] was tested, and the Ki [2, 11] was 11000 ± 460 nM, the inhibition pattern [2, 11] was “C” and the “α (mixed inhibition model)” value [2, 11] was 21.1. For the same compound, the Ki [2, 12] was 10300 ± 790 nM, the inhibition pattern [2, 12] was “UC” and the “α (mixed inhibition model)” value [2, 12] was 0.16.
For “Ash2L (absent small or homoeotic 2-like), full length (from UniProt Q9UBL3 1-628) (natural protein)”, the H3 1-21 affinity (KM) of the SET domain with Ash2L alone, 1:1, 5 μM AdoMet [3] was 2 fold and the Kd assigned to Ash2L from the WRAD2 titration of H3 1-21 affinity (steady-state kinetics) [4] was 4 nM.
For “RbBP5 (retinoblastoma-binding protein), full length (from UniProt Q15291 1-538) (natural protein)”, the Kd assigned to RbBP5 from the WRAD2 titration of kcat (steady-state kinetics) [4] was 12 nM.
With hKMT2D SET domain (Homo sapiens) the Km ([5]; other: 25 nM WRAD2, Ping–Pong model eq 2, substrate H3_1–21) was 5.10 ± 0.32 µM, the Km ([5]; other: [WRAD2] 0 nM, [SET] 125 nM, eq 1) was 5.38 ± 1.0 µM and the Km ([5]; other: [WRAD2] 0.125 nM, [SET] 125 nM, eq 1) was 5.48 ± 1.25 µM. The Km ([5]; other: [WRAD2] 0.5 nM, [SET] 125 nM, eq 1) was 3.61 ± 0.51 µM, the Km ([5]; other: [WRAD2] 1 nM, [SET] 125 nM, eq 1) was 4.55 ± 0.62 µM and the Km ([5]; other: [WRAD2] 2 nM, [SET] 125 nM, eq 1) was 4.18 ± 0.50 µM. For the same compound, the Km ([5]; other: [WRAD2] 4 nM, [SET] 125 nM, eq 1) was 2.36 ± 0.28 µM, the Km ([5]; other: [WRAD2] 6.25 nM, [SET] 30 nM, eq 1) was 3.07 ± 0.16 µM and the Km ([5]; other: [WRAD2] 10 nM, [SET] 30 nM, eq 1) was 3.89 ± 0.33 µM. The Km ([5]; other: [WRAD2] 15 nM, [SET] 30 nM, eq 1) was 4.77 ± 0.22 µM, the Km ([5]; other: [WRAD2] 25 nM, [SET] 30 nM, eq 1, substrate H3_1–21) was 4.65 ± 0.34 µM and the Km ([5]; other: [WRAD2] 125 nM, [SET] 30 nM, eq 1) was 4.71 ± 0.25 µM. For the same compound, the Km ([5]; other: [WRAD2] […], [SET] 125 nM, eq 1) was 6.28 ± 0.65 µM.
Compound `C[S+](CC[C@H](N)C(=O)[O-])C[C@H]1O[C@@H](n2cnc3c(N)ncnc32)[C@H](O)[C@@H]1O` (stereo partly drawn) [AdoMet, S-adenosyl-L-methionine] has a Kd [6] of 7630 ± 460 nM, a Kd [7] of 9000 ± 2000 nM and a Kd ([8]; [WRAD2] 0 nM, [SET] 125 nM) of 5930 ± 1200 nM. It also gave a Kd ([8]; [WRAD2] 0.125 nM, [SET] 125 nM) of 4990 ± 1500 nM, a Kd ([8]; [WRAD2] 0.5 nM, [SET] 125 nM) of 2930 ± 600 nM and a Kd ([8]; [WRAD2] 1 nM, [SET] 125 nM) of 1610 ± 580 nM. The Kd ([8]; [WRAD2] 2 nM, [SET] 125 nM) was 610 ± 360 nM, the Kd ([8]; [WRAD2] 4 nM, [SET] 125 nM) was 650 ± 380 nM and the Kd ([8]; [WRAD2] 6.25 nM, [SET] 30 nM) was 1540 ± 360 nM. It also gave a Kd ([8]; [WRAD2] 10 nM, [SET] 30 nM) of 1420 ± 560 nM, a Kd ([8]; [WRAD2] 15 nM, [SET] 30 nM) of 990 ± 300 nM and a Kd ([8]; [WRAD2] 25 nM, [SET] 30 nM, substrate H3_1–21) of 850 ± 480 nM. It also gave a Kd ([8]; [WRAD2] 125 nM, [SET] 30 nM) of 540 ± 310 nM, a Kd ([8]; [WRAD2] […], [SET] 125 nM) of 5020 ± 680 nM and a Kd ([9]; eq 1, substrate Me1H3_1–21, read-out: Kd^(AdoMet)) of 3760 ± 490 nM. For the same compound, the Kd ([9]; eq 1, substrate Me2H3_1–21, read-out: Kd^(AdoMet)) was 40 nM.
